Source: the Kinase Knowledgebase extract (Sharma et al. 2016)

Molecular target: EGFR (UniProt P00533)
Sequence (P00533 whole entry, looked up): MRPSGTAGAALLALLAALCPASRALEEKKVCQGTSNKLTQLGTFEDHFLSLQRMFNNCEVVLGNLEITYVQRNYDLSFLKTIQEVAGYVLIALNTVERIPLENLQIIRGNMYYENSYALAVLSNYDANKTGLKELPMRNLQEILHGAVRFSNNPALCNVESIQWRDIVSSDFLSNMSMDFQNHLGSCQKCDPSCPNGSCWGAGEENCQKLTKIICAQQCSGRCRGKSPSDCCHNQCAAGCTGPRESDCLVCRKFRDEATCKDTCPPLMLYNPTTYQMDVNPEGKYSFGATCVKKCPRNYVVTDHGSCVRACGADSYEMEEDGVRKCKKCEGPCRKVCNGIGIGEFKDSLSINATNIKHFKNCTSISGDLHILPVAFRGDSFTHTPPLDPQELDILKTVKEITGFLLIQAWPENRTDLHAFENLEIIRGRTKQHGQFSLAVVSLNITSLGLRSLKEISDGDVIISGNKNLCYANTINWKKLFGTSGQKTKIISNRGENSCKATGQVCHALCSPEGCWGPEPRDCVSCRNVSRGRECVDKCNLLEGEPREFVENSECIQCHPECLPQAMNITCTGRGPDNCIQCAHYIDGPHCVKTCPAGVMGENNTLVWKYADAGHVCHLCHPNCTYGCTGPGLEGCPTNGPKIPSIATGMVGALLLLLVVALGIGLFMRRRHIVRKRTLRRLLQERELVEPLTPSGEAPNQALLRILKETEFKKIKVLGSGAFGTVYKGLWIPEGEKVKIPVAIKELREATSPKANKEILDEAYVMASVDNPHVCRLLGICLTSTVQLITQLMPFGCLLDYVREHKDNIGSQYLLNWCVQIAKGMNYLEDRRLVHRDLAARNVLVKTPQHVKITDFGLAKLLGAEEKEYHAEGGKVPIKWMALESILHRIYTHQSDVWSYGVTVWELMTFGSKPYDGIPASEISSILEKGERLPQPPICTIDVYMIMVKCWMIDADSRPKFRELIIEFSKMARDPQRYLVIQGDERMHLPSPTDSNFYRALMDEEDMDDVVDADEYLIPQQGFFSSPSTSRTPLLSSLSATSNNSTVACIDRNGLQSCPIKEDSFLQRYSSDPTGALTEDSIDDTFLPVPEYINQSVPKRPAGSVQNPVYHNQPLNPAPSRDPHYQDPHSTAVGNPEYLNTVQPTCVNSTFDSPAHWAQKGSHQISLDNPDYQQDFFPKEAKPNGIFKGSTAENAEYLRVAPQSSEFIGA

IC50	SMILES
≤ 10 µM	CC(=O)Nc1cccc(/C=C/c2cncnc2Nc2ccc3c(cnn3Cc3ccccc3)c2)c1
≤ 10 µM	N#CCCNCc1ccc(C#Cc2cncnc2Nc2ccc(OCc3cccc(F)c3)c(Cl)c2)o1
< 0.1 µM	Fc1cccc(COc2ccc(Nc3ncncc3C#Cc3cccc(CN4CCCCC4)n3)cc2Cl)c1
≤ 10 µM	OCc1nc(C#Cc2cncnc2Nc2ccc(OCc3cccc(F)c3)c(Cl)c2)cs1
≤ 10 µM	CN(CCO)C(=O)NCc1cccc(C#Cc2cncnc2Nc2ccc(OCc3cccc(F)c3)c(Cl)c2)n1
< 0.1 µM	Nc1cccc(C#Cc2cncnc2Nc2ccc(OCc3cccc(F)c3)c(Cl)c2)n1
≤ 10 µM	CC(C)(C)OC(=O)NCc1cccc(C#Cc2cncnc2Nc2ccc(OCc3cccc(F)c3)c(Cl)c2)c1
≤ 10 µM	CS(=O)(=O)CCNCc1cccc(C#Cc2cncnc2Nc2ccc(OCc3cccc(F)c3)c(Cl)c2)c1
≤ 10 µM	CC(=O)Nc1cccc(C#Cc2cncnc2Nc2ccc(OCc3cccc(F)c3)c(Cl)c2)c1
≤ 10 µM	NCCC(=O)Nc1cccc(C#Cc2cncnc2Nc2ccc(OCc3cccc(F)c3)c(Cl)c2)c1
≤ 10 µM	CNC(=O)NCc1cccc(C#Cc2cncnc2Nc2ccc(OCc3cccc(F)c3)c(Cl)c2)n1
≤ 10 µM	Oc1cccnc1/C=C/c1cncnc1Nc1ccc2c(cnn2Cc2ccccc2)c1
≤ 10 µM	Fc1cccc(COc2ccc(Nc3ncncc3C#Cc3cccc(CN4CCOCC4)n3)cc2Cl)c1
≤ 10 µM	COc1cccc(C#Cc2cncnc2Nc2ccc(OCc3cccc(F)c3)c(Cl)c2)n1
≤ 10 µM	Fc1cccc(COc2ccc(Nc3ncncc3C#Cc3cccc(CNCc4ccccc4)n3)cc2Cl)c1
< 0.1 µM	Fc1cccc(COc2ccc(Nc3ncncc3/C=C/c3ccccc3)cc2Cl)c1
≤ 10 µM	Fc1cccc(COc2ccc(Nc3ncncc3/C=C/c3cn[nH]c3)cc2Cl)c1
≤ 10 µM	Fc1cccc(COc2ccc(Nc3ncncc3C#Cc3ccnc(N4CCOCC4)n3)cc2Cl)c1
≤ 10 µM	CS(=O)(=O)CCNc1nc(C#Cc2cncnc2Nc2ccc(OCc3cccc(F)c3)c(Cl)c2)ncc1C#N
≤ 10 µM	Oc1ccc(C#Cc2cncnc2Nc2ccc(OCc3cccc(F)c3)c(Cl)c2)cc1
≤ 10 µM	C(=C\c1cncnc1Nc1ccc2[nH]c(Cc3ccccc3)nc2c1)/c1ccccc1
